For one assay, the target named is T1, BRD4 BD1 (Homo sapiens, UniProt O60885).
T1 construct: made in house
The experiment in a line: AlphaScreen binding assay, BRD4 Bromodomain 1. In short, it runs like this:
(§1)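 Compound dilution series were mixed with His-tagged BRD4 bromodomain and biotinylated tetra-acetylated H4 (1-21) peptide at pH 7.3 (BD1 and peptide at 50 nM, BD2 and peptide at 100 nM). Donor and acceptor beads were then added, and plates were equilibrated at least 1 h before reading. IC50 values were fitted with a four-parameter logistic model.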
A general note: In Alpha technology, singlet oxygen from a donor bead excites a nearby acceptor bead.

For the next assay, the system named is MV4-11 cells. The experiment in a line: Oncology cell growth assay (3-day proliferation, CellTiter-Glo). In kind it is cell-based. As to conditions: Homo sapiens, MV4-11, 72 h, AML cell line MV4-11, 72 hours, compounds grouped by IC50 range, read-out: MV4-11 IC50 (inhibition of proliferation, gIC50). In short, it runs like this:
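Compounds were serially diluted 3-fold in DMSO, giving final well concentrations from 10 down to 0.0045 μM. MV4-11 cells were then seeded at 3000 cells/well in RPMI 1640 with 10% FBS and incubated 72 hours. CellTiter-Glo signal was measured and gIC50 obtained by four-parameter logistic regression.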
In general terms: Cellular ATP, detected with luciferase, serves as a proxy for viable cell number.

In the next assay the target is T2, BRD4 BD2 (Homo sapiens, UniProt O60885).
T2 construct: made in house
The experiment in a line: AlphaScreen binding assay, BRD4 Bromodomain 2. In short, it runs like this:
as §1

With `CCOC(=O)N1C[C@H](C)N(C(C)=O)c2ccc(-c3cnn(C4COC4)c3)cc21` [Example I-9, (S)-ethyl 4-acetyl-3-methyl-7-(1-(oxetan-3-yl)-1H-pyrazol-4-yl)-3,4-dihydro-quinoxaline-1(2H)-carboxylate], the IC50 at BRD4 BD1 lay within 100 to 1000 nM; with MV4-11 cells it was 100 to 500 nM; at BRD4 BD2, 50 to 500 nM.
Take `CC(=O)N1c2ccc(-c3cnn(C(C)(C)CO)c3)cc2N(C(=O)OC(C)C)C[C@@H]1C` [Example I-1275]: the IC50 at BRD4 BD1 is 100 to 1000 nM; with MV4-11 cells, 100 to 500 nM; at BRD4 BD2, below 50 nM.
Take `CC(=O)N1c2ccc(-c3ccc(S(C)(=O)=O)cc3)cc2N(C(=O)C2CC2)C[C@@H]1C` [Example I-781]: the IC50 at BRD4 BD1 was 1000 to 10000 nM; in the assay with MV4-11 cells, above 500 nM; at BRD4 BD2, 50 to 500 nM.
As to `CC(=O)N1c2ccc(-c3ccc(N4CCS(=O)(=O)CC4)cc3)cc2N(C(=O)c2ccco2)C[C@@H]1C` [Example I-417], the values for the IC50 on BRD4 BD1, in the assay with MV4-11 cells and on BRD4 BD2 were 100 to 1000 nM, below 100 nM and below 50 nM, respectively.
Take `CC(=O)N1c2ccc(-c3ccc(S(C)(=O)=O)c(F)c3)cc2N(C(=O)OC2CCCCC2)C[C@@H]1C` [Example I-1241]: the IC50 lay in the range of 100 to 1000 nM on BRD4 BD1, 100 to 500 nM in the assay with MV4-11 cells and 50 to 500 nM on BRD4 BD2.
With `CC(=O)N1c2ccc(-c3cnn(Cc4ccno4)c3)cc2N(C(=O)OC(C)C)C[C@@H]1C` [Example I-131, (S)-isopropyl 4-acetyl-7-(1-(isoxazol-5-ylmethyl)-1H-pyrazol-4-yl)-3-methyl-3,4-dihydroquinoxaline-1(2H)-carboxylate], the IC50 at BRD4 BD1 fell in the range of 100 to 1000 nM; with MV4-11 cells it was 100 to 500 nM; at BRD4 BD2, 50 to 500 nM.
For `COC(=O)N1c2ccc(-c3cnn(CC(N)=O)c3)cc2N(C(=O)OC(C)C)C[C@@H]1C` [Example I-319], the results for the IC50 on BRD4 BD1, in the assay on MV4-11 cells and on BRD4 BD2 were 100 to 1000 nM, above 500 nM and 50 to 500 nM, respectively.
Consider `CC(=O)N1c2ccc(-c3cccc(N4CCCS4(=O)=O)c3)cc2N(C(=O)C2CCC2)C[C@@H]1C` [Example I-1161], for which the IC50 is 1000 to 10000 nM on BRD4 BD1, above 500 nM in the assay with MV4-11 cells and 50 to 500 nM on BRD4 BD2.
On to `CC(=O)N1c2ccc(-c3cccc(NS(=O)(=O)N(C)C)c3)cc2N(C(=O)OC2CCOCC2)C[C@@H]1C` [Example I-1274], for which the IC50 on BRD4 BD1 lay within 100 to 1000 nM; in the assay with MV4-11 cells, 100 to 500 nM; on BRD4 BD2, 50 to 500 nM.
As to `CC(=O)N1c2ccc(-c3ccc(S(=O)(=O)NCCO)cc3)cc2N(C(=O)C2CCC2)C[C@@H]1C` [Example I-1036], the IC50 fell in the range of 1000 to 10000 nM at BRD4 BD1, 100 to 500 nM with MV4-11 cells and 50 to 500 nM on BRD4 BD2.
On to `CC(=O)N1c2ccc(-c3ccc(S(C)(=O)=O)cc3)cc2N(C(=O)Oc2ccc(C)cc2)C[C@@H]1C` [Example I-232], for which the IC50 was 100 to 1000 nM on BRD4 BD1, below 100 nM in the assay on MV4-11 cells and 50 to 500 nM at BRD4 BD2.
As for `CC(=O)N1c2ccc(-c3cnn(Cc4nonc4C)c3)cc2N(C(=O)OC(C)C)C[C@@H]1C` [Example I-677], the IC50 at BRD4 BD1 lay in the range of 100 to 1000 nM; in the assay on MV4-11 cells, 100 to 500 nM; on BRD4 BD2, 50 to 500 nM.
Consider `CC(=O)N[C@@H]1CCN(C(=O)c2ccc(-c3ccc4c(c3)N(C(=O)OC(C)C)C[C@H](C)N4C(C)=O)cc2)C1` [Example I-540], for which the IC50 was below 100 nM on BRD4 BD1, below 100 nM in the assay with MV4-11 cells and below 50 nM at BRD4 BD2.
On to `CC(=O)N1c2ccc(-c3cnn(CC(=O)N4CCOCC4)c3)cc2N(C(=O)OC(C)C)C[C@@H]1C` [Example I-654], for which the IC50 on BRD4 BD1 fell in the range of 100 to 1000 nM; with MV4-11 cells, 100 to 500 nM; at BRD4 BD2 it was 50 to 500 nM.
As for `CC(=O)N1c2ccc(-c3cccc(S(=O)(=O)C4CC4)c3)cc2N(C(=O)C2CC2)C[C@@H]1C` [Example I-1086], the IC50 was 1000 to 10000 nM on BRD4 BD1, above 500 nM with MV4-11 cells and 50 to 500 nM on BRD4 BD2.
Consider `CCOC(=O)N1C[C@H](C)N(C(C)=O)c2ccc(-c3cccc(S(C)(=O)=O)c3)cc21` [Example I-1052], for which the IC50 at BRD4 BD1 is 1000 to 10000 nM; with MV4-11 cells it was above 500 nM; on BRD4 BD2, 50 to 500 nM.
Consider `CC(=O)N1c2cc(C(N)=O)c(-c3cnn(C4CC4)c3)cc2N(C(=O)OC(C)C)C[C@@H]1C` [Example I-212, Isopropyl (S)-4-acetyl-6-carbamoyl-7-(1-cyclopropyl-1H-pyrazol-4-yl)-3-methyl-3,4-dihydroquinoxaline-1(2H)-carboxylate], for which the IC50 at BRD4 BD1 lay within 100 to 1000 nM; with MV4-11 cells, 100 to 500 nM; on BRD4 BD2, 50 to 500 nM.
Turning to `CC(=O)N[C@H]1CCN(C(=O)c2ccc(-c3ccc4c(c3)N(C(=O)OC(C)C)C[C@H](C)N4C(C)=O)cc2)C1` [Example I-541], the results for the IC50 on BRD4 BD1, with MV4-11 cells and on BRD4 BD2 were 100 to 1000 nM, 100 to 500 nM and 50 to 500 nM, respectively.
For the compound `CC(C)OC(=O)N1C[C@H](C)N(C(=O)C2CC2)c2ccc(-c3cnn(CCS(C)(=O)=O)c3)cc21` [Example I-309], the IC50 on BRD4 BD1 was 100 to 1000 nM; with MV4-11 cells it was above 500 nM; on BRD4 BD2, 50 to 500 nM.
For the compound `COC(=O)Nc1cc2c(cc1-c1cnn(C3CC3)c1)N(C(=O)OC(C)C)C[C@H](C)N2C(C)=O` [Example I-204, Isopropyl (S)-4-acetyl-7-(1-cyclopropyl-1H-pyrazol-4-yl)-6-((methoxycarbonyl)amino)-3-methyl-3,4-dihydroquinoxaline-1(2H)-carboxylate], the IC50 was 100 to 1000 nM at BRD4 BD1, above 500 nM in the assay on MV4-11 cells and 50 to 500 nM at BRD4 BD2.
For `CC(=O)N1c2ccc(-c3ccc(S(=O)(=O)C(C)C)cc3)cc2N(C(=O)C2CC2)C[C@@H]1C` [Example I-1062], in that order: 1000 to 10000 nM, above 500 nM and 50 to 500 nM.
For `CC(=O)N1c2ccc(-c3cnn(C4CC4)c3)cc2N(C(=O)Oc2cccc(Cl)c2)C[C@@H]1C` [Example I-518], in that order: 100 to 1000 nM, 100 to 500 nM and 50 to 500 nM.
For the compound `COC(=O)N1c2ccc(-c3cnn(CC(F)(F)F)c3)cc2N(C(=O)OC(C)C)C[C@@H]1C` [Example I-636], the IC50 at BRD4 BD1 was 100 to 1000 nM; with MV4-11 cells it was above 500 nM; at BRD4 BD2 it was above 500 nM.
For `CC(=O)N1c2ccc(-c3ccc4nccn4n3)cc2N(C(=O)c2ccco2)C[C@@H]1C` [Example I-398], the IC50 was 100 to 1000 nM on BRD4 BD1, 100 to 500 nM in the assay with MV4-11 cells and 50 to 500 nM at BRD4 BD2.
For the compound `CC(=O)N1c2ccc(-c3cnn(C4CCOCC4)c3)cc2N(C(=O)OC2CCC2)C[C@@H]1C` [Example I-39, (S)-cyclobutyl 4-acetyl-3-methyl-7-(1-(tetrahydro-2H-pyran-4-yl)-1H-pyrazol-4-yl)-3,4-dihydroquinoxaline-1(2H)-carboxylate], the IC50 is 100 to 1000 nM on BRD4 BD1, below 100 nM in the assay on MV4-11 cells and below 50 nM at BRD4 BD2.
For `CC(=O)N1c2ccc(-c3ccc4scnc4c3)cc2N(C(=O)c2ccco2)C[C@@H]1C` [Example I-865], the IC50 at BRD4 BD1 was 100 to 1000 nM; with MV4-11 cells it was 100 to 500 nM; on BRD4 BD2, below 50 nM.
With `CC(=O)N1c2ccc(-c3ccc(C(=O)NCCN)cc3)cc2N(C(=O)c2ccco2)C[C@@H]1C` [Example I-426], the IC50 on BRD4 BD1 was 1000 to 10000 nM; in the assay with MV4-11 cells, 100 to 500 nM; at BRD4 BD2, below 50 nM.
In the case of `CC(=O)N1c2ccc(-c3cnn(C4CC4)c3)cc2N(c2nn(C)c3ncccc23)C[C@@H]1C` [Example I-184, 1-[(2S)-6-(1-cyclopropyl-1H-pyrazol-4-yl)-2-methyl-4-{1-methyl-1H-pyrazolo[3,4-b]pyridin-3-yl}-1,2,3,4-tetrahydroquinoxalin-1-yl]ethan-1-one], the IC50 at BRD4 BD1 is 100 to 1000 nM; with MV4-11 cells, 100 to 500 nM; on BRD4 BD2, 50 to 500 nM.
On the same counts, the results for `CC(=O)N1c2ccc(-c3ccc(C(=O)N4CCCC4)cc3)cc2N(C(=O)c2ccco2)C[C@@H]1C` [Example I-282] are 1000 to 10000 nM, 100 to 500 nM and below 50 nM.
With `C[C@H]1CN(C(=O)C2CC2)c2cc(-c3ccc(C(=O)N4CCNCC4)cc3)ccc2N1C(=O)C1CC1` [Example I-438], the IC50 at BRD4 BD1 lay within 100 to 1000 nM; in the assay on MV4-11 cells, 100 to 500 nM; on BRD4 BD2, 50 to 500 nM.
In the case of `CC(=O)N1c2ccc(-c3cnn(C4CC4)c3)cc2N(C(=O)Oc2ccc3ccncc3c2)C[C@@H]1C` [Example I-1206], the IC50 is 100 to 1000 nM at BRD4 BD1, 100 to 500 nM in the assay with MV4-11 cells and below 50 nM at BRD4 BD2.
Turning to `CC(=O)N1c2ccc(-c3ccc4c(c3)CCN4S(C)(=O)=O)cc2N(C(=O)Oc2ccccn2)C[C@@H]1C` [Example I-1328], the IC50 lay in the range of 100 to 1000 nM on BRD4 BD1, 100 to 500 nM in the assay on MV4-11 cells and 50 to 500 nM on BRD4 BD2.
Consider `CC(=O)N1c2ccc(-c3cnn(C4CCNCC4)c3)cc2N(C(=O)OC(C)C)C[C@@H]1C` [Example I-353], for which the IC50 was 100 to 1000 nM on BRD4 BD1, 100 to 500 nM in the assay on MV4-11 cells and 50 to 500 nM at BRD4 BD2.
On to `CC(=O)N[C@H]1CCN(C(=O)c2ccc(-c3ccc4c(c3)N(C(=O)OC(C)C)C[C@H](C)N4C(=O)C3CC3)cc2)C1` [Example I-570], for which the IC50 fell in the range of 100 to 1000 nM on BRD4 BD1, 100 to 500 nM with MV4-11 cells and 50 to 500 nM at BRD4 BD2.
Regarding `CC(=O)N1c2ccc(-c3cccc(NS(=O)(=O)N(C)C)c3)cc2N(C(=O)OC(C)C)C[C@@H]1C` [Example I-1146], the IC50 was in the range of 100 to 1000 nM at BRD4 BD1, 100 to 500 nM with MV4-11 cells and 50 to 500 nM on BRD4 BD2.

The values are drawn from patent publication US10703764B2, “Benzopiperazine compositions as BET bromodomain inhibitors” (FORMA Therapeutics, Inc., priority 2013, dated 2020).
